This is an account of results in ChEMBL document CHEMBL5325400 (Eur J Med Chem, 2023).

Activity calls are given as the source filed them. The calls are words filed in the database; no cut-off is given here. A value given as a limit tells only on which side of the number the result lay.

For one series, the system named is MDA-MB-231. Description: Antiproliferative activity against human MDA-MB-231 cells assessed as inhibition of cell growth measured after 48 hrs by MTT assay. The class given is functional, cell-based. As to conditions: MDA-MB-231, 48 h. For orientation: Tetrazolium assays rely on reduction of a dye to a coloured formazan, in cell work by metabolically active cells.

A further series deals with HepG2. Briefly: Antiproliferative activity against human HepG2 cells assessed as inhibition of cell growth measured after 48 hrs by MTT assay. The class given is functional, cell-based. As to conditions: HepG2, 48 h.
In a further series the test system is HeLa. Description: Antiproliferative activity against human HeLa cells assessed as inhibition of cell growth measured after 48 hrs by MTT assay. The series is classed as functional, cell-based.
Another series deals with A2780/Taxol. Description: Antiproliferative activity against paclitaxel resistant human A2780/Taxol cells assessed as inhibition of cell growth incubated for 48 hrs by MTT assay. The class given is functional, cell-based.
A further series has as its system SK-OV-3. Briefly: Antiproliferative activity against human SK-OV-3 cells assessed as inhibition of cell growth measured after 48 hrs by MTT assay. The series is classed as functional, cell-based. To be noted: SK-OV-3, 48 h.
The next series concerns A2780. Briefly: cells. To be noted: Homo sapiens, A2780, 48 h.
The subject of the next series is B16-F10. Briefly: Antiproliferative activity against mouse B16-F10 cells assessed as inhibition of cell growth measured after 48 hrs by MTT assay. The class given is functional, cell-based. As to conditions: B16-F10, 48 h.
Series [1] has as its system A549. Description: Antiproliferative activity against human A549 cells expressing lentivirus RNAi VTI-96658 assessed as inhibition of cell growth measured after 48 hrs by MTT assay. The class given is functional, cell-based.
The next series deals with Tubulin (Sus scrofa) (UniProt P02554+P02550). Briefly: Inhibition of porcine brain tubulin polymerization at 10 uM measured at 1 min interval for 60 mins by fluorescence based analysis.
Series [2] relates to A549. Briefly: Antiproliferative activity against human A549 cells expressing lentivirus RNAi VTI-96660 assessed as inhibition of cell growth measured after 48 hrs by MTT assay. The class given is functional, cell-based.
Series [3] concerns A549. Description: Antiproliferative activity against human A549 cells assessed as inhibition of cell growth measured after 48 hrs by MTT assay. The class given is functional, cell-based. As to conditions: A549, 48 h.
The test system of series [4] is A549. Briefly: Antiproliferative activity against human A549 cells expressing lentivirus RNAi VTI-96659 assessed as inhibition of cell growth measured after 48 hrs by MTT assay. The series is classed as functional, cell-based.
Series [5] concerns A549. Description: Antitumor activity against human A549 cells xenografted in BALB/c mouse assessed as tumor weight at 10 mg/kg, ip administered every other day for 25 days. The series is classed as functional, organism-based. To be noted: time 25.0 day. A general note: Xenograft models place foreign cells or tissue in a host animal.
Series [6] deals with A549. Briefly: Antitumor activity against human A549 cells xenografted in BALB/c mouse assessed as tumor growth inhibition at 10 mg/kg, ip administered every other day for 25 days. The series is classed as functional. As to conditions: A549, 600 h, time 25 day, read-out: TGI.
Series [7] can be described thus: Toxicity in BALB/c mouse xenografted with human A549 cells assessed as change in body weight at 10 mg/kg, ip administered every other day for 25 days. To be noted: in vivo, 600 h, time 25 day. The series is classed as organism-based.
The test system of series [8] is A549. Description: Antitumor activity against human A549 cells xenografted in BALB/c mouse assessed as tumor volume at 10 mg/kg, ip administered every other day for 25 days. The class given is functional. To be noted: time 25 day.

Chain of Tubulin (Sus scrofa) (P02550 whole entry, looked up): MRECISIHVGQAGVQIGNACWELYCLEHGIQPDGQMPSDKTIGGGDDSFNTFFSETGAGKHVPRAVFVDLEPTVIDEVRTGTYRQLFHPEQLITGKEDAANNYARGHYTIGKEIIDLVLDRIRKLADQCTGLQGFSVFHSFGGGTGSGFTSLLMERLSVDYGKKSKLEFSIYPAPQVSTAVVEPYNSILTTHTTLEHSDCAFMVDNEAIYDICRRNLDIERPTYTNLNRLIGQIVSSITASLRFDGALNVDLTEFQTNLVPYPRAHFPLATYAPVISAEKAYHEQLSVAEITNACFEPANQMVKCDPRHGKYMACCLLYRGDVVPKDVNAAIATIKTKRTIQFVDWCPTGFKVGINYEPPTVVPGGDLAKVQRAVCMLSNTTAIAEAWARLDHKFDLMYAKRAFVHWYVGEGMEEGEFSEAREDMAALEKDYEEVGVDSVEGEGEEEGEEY
Chain of Tubulin (Sus scrofa) (P02554 whole entry, looked up): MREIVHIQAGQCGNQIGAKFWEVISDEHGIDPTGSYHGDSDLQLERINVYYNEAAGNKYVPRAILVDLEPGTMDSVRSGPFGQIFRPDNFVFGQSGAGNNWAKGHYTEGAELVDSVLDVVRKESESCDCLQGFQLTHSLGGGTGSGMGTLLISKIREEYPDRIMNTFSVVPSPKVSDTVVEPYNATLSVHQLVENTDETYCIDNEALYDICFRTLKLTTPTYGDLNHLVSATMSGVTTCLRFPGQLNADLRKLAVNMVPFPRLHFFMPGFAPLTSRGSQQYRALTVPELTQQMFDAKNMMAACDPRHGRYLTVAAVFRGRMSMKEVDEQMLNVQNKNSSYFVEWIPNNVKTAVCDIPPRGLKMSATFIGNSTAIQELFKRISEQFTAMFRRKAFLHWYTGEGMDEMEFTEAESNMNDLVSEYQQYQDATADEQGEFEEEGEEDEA

Take `COc1cc2c(c(OC)c1OC)-c1ccc(OC)c(=O)cc1[C@@H](NC(C)=O)CC2` [COLCHICINE]: the IC50 (commonly the concentration at which inhibition is half-maximal) in the series on MDA-MB-231 turned out to be 67.4 nM; with HepG2, 83.7 nM; with HeLa it was 33.5 nM; in the series with A2780/Taxol, 253 nM; in the series on SK-OV-3 it was 7.2 nM; in the series with A2780, 20 nM. In the series on B16-F10, the IC50 was determined as 29.2 nM.
As to `O=C(Nc1cccc(Nc2cc(Nc3cccc(C(F)(F)F)c3)ncn2)c1)C1CC1`, the 50% inhibitory concentration (IC50) in the series with MDA-MB-231 came out at 45.3 nM; in the series with HepG2 it was 28.5 nM; with HeLa, 83.4 nM; with A549 [3] it was 84.1 nM; in the series on SK-OV-3 it was 63.2 nM; in the series with B16-F10 it was 60.7 nM. Further, the outcome with A549 [1], in the series on A549 [2] and in the series with A549 [4] was Active. The inhibition entry at Tubulin (Sus scrofa) was “Active”.
Consider `COc1cccc(Nc2nc(Nc3cccc(NC(=O)C4CC4)c3)c3ccccc3n2)c1`, for which the 50% inhibitory concentration (IC50) in the series with MDA-MB-231, in the series with HepG2, in the series on HeLa, in the series with A549 [3], in the series with SK-OV-3 and in the series on B16-F10 was above 1000 nM each time.
For `O=C(Nc1cccc(Nc2cc(Nc3cccc(C(F)F)c3)ncn2)c1)C1CC1`, the half-maximal inhibitory concentration (IC50) in the series with MDA-MB-231 came to 38.7 nM; in the series on HepG2, 15.6 nM; in the series with HeLa it was 48.5 nM; with A549 [3] it was 9.3 nM; in the series with SK-OV-3 it was 2.1 nM; with B16-F10, 61.3 nM.
Consider `COc1cccc(Nc2nc(Nc3cccc(NC(=O)C4CC4)c3)c3ccsc3n2)c1`, for which the IC50 in the series on MDA-MB-231, with HepG2, with HeLa, in the series on A549 [3], in the series with SK-OV-3 and with B16-F10 was above 1000 nM in each case.
For `O=C(NCCCNc1cc(Nc2cccc(C(F)(F)F)c2)ncn1)C1CC1`, the IC50 in the series on MDA-MB-231, with HepG2, in the series on HeLa, in the series with A549 [3], in the series on SK-OV-3 and with B16-F10 was above 1000 nM throughout.
For the molecule `COc1cccc(Nc2cc(Nc3cccc(C(=O)NC4CC4)c3)ncn2)c1`, the IC50 in the series with MDA-MB-231, in the series on HepG2, in the series with HeLa, in the series with A549 [3], with SK-OV-3 and with B16-F10 was above 1000 nM each time.
Regarding `COc1cc(Nc2cc(Nc3cccc(NC(=O)C4CC4)c3)ncn2)ccc1Cl`, the half-inhibitory concentration (IC50) with MDA-MB-231 stood at 356 nM; with HepG2 it was 374 nM; in the series on HeLa, 397 nM; in the series with A549 [3], 547 nM; with SK-OV-3, 811 nM; with B16-F10, 472 nM.
Regarding `COc1cccc(Nc2cc(Nc3cccc(NC(=O)C4CCCC4)c3)ncn2)c1`, the concentration for half-maximal inhibition (IC50) is 105 nM in the series with MDA-MB-231; 158 nM in the series with HepG2; 41.5 nM with HeLa; 198 nM with A549 [3]; 9.6 nM in the series with SK-OV-3; above 1000 nM in the series on B16-F10.
`COc1cccc(Nc2nc(Nc3cccc(NC(=O)C4CC4)c3)c3sccc3n2)c1`: the IC50 in the series on MDA-MB-231, with HepG2, in the series with HeLa, in the series with A549 [3], in the series with SK-OV-3 and with B16-F10 was above 1000 nM in each case.
In the case of `COc1cccc(Nc2cc(Nc3cccc(NC(=O)C4CC4)c3)ncn2)c1F`, the IC50 is 31.4 nM in the series with MDA-MB-231; 313 nM in the series with HepG2; 45.7 nM in the series with HeLa; 4.8 nM in the series on A549 [3]; 26.8 nM in the series on SK-OV-3; 181 nM with B16-F10.
As for `COc1cccc(Nc2nc(Nc3cccc(NC(=O)C4CC4)c3)nc3ccccc23)c1`, the IC50 in the series on MDA-MB-231 was 122 nM; with HepG2, above 1000 nM; with HeLa it was above 1000 nM; in the series with A549 [3], above 1000 nM; with SK-OV-3, 864 nM; with B16-F10 it was 172 nM.
As for `CC(=O)O[C@H]1C(=O)[C@@]2(C)[C@H]([C@H](OC(=O)c3ccccc3)[C@]3(O)C[C@H](OC(=O)[C@H](O)[C@@H](NC(=O)c4ccccc4)c4ccccc4)C(C)=C1C3(C)C)[C@]1(OC(C)=O)CO[C@@H]1C[C@@H]2O` [PACLITAXEL], the IC50 in the series with MDA-MB-231 was 1.1 nM; in the series on HepG2, 2.5 nM; in the series with A549 [3], 3.8 nM; with A2780/Taxol it was 17900 nM; in the series with SK-OV-3, 34.5 nM; in the series with B16-F10 it was above 1000 nM. In the series with A549 [5], the result was Active. Moreover, the inhibition entry at Tubulin (Sus scrofa) is “inactive”. Also, the inhibition in vivo at 10 mg/kg with A549 [6] is 48.6%. Also, the Activity entry in series [7] is given as “Non-Toxic”; with A549 [8], 46.53%.
For the molecule `COc1cccc(Nc2cc(Nc3cccc(NS(=O)(=O)C4CCCCC4)c3)ncn2)c1`, the concentration for half-maximal inhibition (IC50) is above 1000 nM with MDA-MB-231; above 1000 nM with HepG2; above 1000 nM in the series on HeLa; above 1000 nM with A549 [3]; 286 nM with SK-OV-3; above 1000 nM with B16-F10.
